# Assays:
# Assay type in all cases: biochemical
# [1] = system: Herpes Simplex Virus Protease
# [2] = target: T1, human cathepsin K (Homo sapiens, UniProt P43235); experiment: Inhibition of human cathepsin K (fluorescence peptide assay); conditions: compound concentration 106 μmolar; pH 5.5, 10 μmolar peptide
# T1 sequence (P43235 115-329): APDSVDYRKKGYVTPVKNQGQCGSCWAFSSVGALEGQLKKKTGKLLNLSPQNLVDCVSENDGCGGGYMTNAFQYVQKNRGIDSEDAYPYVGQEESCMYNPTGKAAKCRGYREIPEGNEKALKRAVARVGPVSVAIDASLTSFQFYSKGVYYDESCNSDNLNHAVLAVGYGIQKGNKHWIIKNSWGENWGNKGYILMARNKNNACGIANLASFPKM
# Protocol: The inhibition of human cathepsin K by the compound shown in Scheme N (106 μmolar) was determined. The peptides utilized were chromophoric Z-Phe-Arg-pNA*HCl and fluorogenic Z-Phe-Arg-AMC (each available from BACHEM Bioscience, Inc.). Stock solutions were prepared with 100% dimethylsulfoxide (DMSO) and stored at −20° C.
# The final assay conditions were 100 mM NaOAc, pH of 5.5, 10 mM (R,R)-dithiothreitol (DTT), 10% DMSO, 120 mM NaCl, 10 μmolar of the peptide, and 12.5-0.012 μmolar inhibitor in twofold serial dilutions from 20× stocks in 100% DMSO. The enzyme working solution was a 1:3000 dilution of […] human cathepsin K into 100 mM of NaOAc, pH of 5.5, 10 mM DTT, 1.2 M NaCl.
# Serial dilutions were performed in 100% DMSO. Columns 2-12 of an intermediate plate were filled with […] of 100% DMSO and column 1 was filled with […]. Next, […] of a 10 mM solution was added to column 1. A twofold serial dilution was prepared in columns 1-11 of the intermediate plate by sequential transfer of […] of the contents of each well in a column to the corresponding well of the next column, with mixing between each transfer. […] The fluorescence was monitored every 6 minutes for 72 minutes using a CytoFluor Series 4000 PerSeptive Biosystems multi-well fluorescence plate reader with the following settings: gain=50; 20 reads/well; 32° C.; lex=360±20 nm; and lem=440±120 nm.
# [3] = target: T2, HIV protease (Human immunodeficiency virus type 1 group M subtype B, UniProt P04585)
# T2 construct: a key virally encoded protease enzyme of the pol gene
SMILES,inhibition of the protease [1] [%],inhibition of human cathepsin K [2] [%],inhibition of the protease [3] [%]
COP1(=O)N(Cc2ccccc2)CC=CCN1Cc1ccccc1 [Scheme K],25.5,–,–
C=CCOP1(=O)OCC=CCN1[C@H](C(=O)OC)C(C)C (stereo partly drawn) [Scheme L],34.7,–,–
COP1(=O)N[C@@H](C(C)C)C=C[C@H](C(C)C)O1 (stereo partly drawn) [Scheme M],33.5,–,–
CC(C)(C)OC(=O)NC(Cc1ccccc1)CN1CC=CCN(C[C@H](Cc2ccccc2)NC(=O)OC(C)(C)C)P1(=O)Cl (stereo partly drawn) [Scheme N],44.4,34,23
